Data published in patent publication US20090270407A1, “FUNGICIDAL ISOXAZOLIDINES” (E. I. DU PONT DE NEMOURS AND COMPANY, priority 2008, published 2009).
Read-outs that look alike come from different tables or passages of the source. Marks after values point to notes of the source that are not given here.

Key:
Septoria nodorum = assay: Test C: wheat glume blotch, preventive spray on wheat seedlings, visual disease rating; details: 100 = 100 % disease control, 0 = no disease control relative to controls
Method: (An asterisk “*” next to the rating value indicates a 40 ppm test suspension.)
The test suspension was sprayed to the point of run-off on wheat seedlings. The following day the seedlings were inoculated with a spore suspension of Septoria nodorum (the causal agent of wheat glume blotch) and incubated in a saturated atmosphere at 20° C. for 48 h, and then moved to a growth chamber at 20° C. for 7 days, after which time visual disease ratings were made.
(§1) A dash (−) indicates no test results. All results are for 200 ppm except where followed by “*” which indicates 40 ppm.

Phytophthora infestans = type: in vivo; details: 100 = 100 % disease control, 0 = no disease control relative to controls
Septoria tritici = assay: Test D: wheat leaf blotch, preventive spray on wheat seedlings, visual disease rating; type: in vivo; details: 100 = 100 % disease control, 0 = no disease control relative to controls
Source text: A dash (−) indicates no test results.

[1] = tested on: Erysiphe graminis f. sp. tritici; assay: Test A: wheat powdery mildew, preventive spray on wheat seedlings, visual disease rating; details: 100 = 100 % disease control, 0 = no disease control relative to controls
Source text: (§2) General protocol for preparing test suspensions for Tests A-I: The test compounds were first dissolved in acetone in an amount equal to 3% of the final volume and then suspended at the desired concentration (in ppm) in acetone and purified water (50/50 mix) containing 250 ppm of the surfactant Trem® 014 (polyhydric alcohol esters). The resulting test suspensions were then used in Tests A-I. Spraying a 200 ppm test suspension to the point of run-off on the test plants was the equivalent of a rate of 500 g/ha. (An asterisk “*” next to the rating value indicates a 40 ppm test suspension.)
The test suspension was sprayed to the point of run-off on wheat seedlings. The following day the seedlings were inoculated with a spore dust of Erysiphe graminis f. sp. tritici (the causal agent of wheat powdery mildew) and incubated in a growth chamber at 20° C. for 8 days, after which time visual disease ratings were made.

Plasmopara viticola = assay: Test I: grape downy mildew, spray on grape seedlings after inoculation, visual disease rating; details: 100 = 100 % disease control, 0 = no disease control relative to controls
Source text: as §2
Grape seedlings were inoculated with a spore suspension of Plasmopara viticola (the causal agent of grape downy mildew) and incubated in a saturated atmosphere at 20° C. for 24 h. After a short drying period, the test suspension was sprayed to the point of run-off on the grape seedlings and then moved to a growth chamber at 20° C. for 6 days, after which time the test units were placed back into a saturated atmosphere at 20° C. for 24 h. Upon removal, visual disease ratings were made.
(§3) All results are for 200 ppm except where followed by “*” which indicates 40 ppm.

Alternaria solani = assay: Test F: tomato early blight, preventive spray on tomato seedlings, visual disease rating; details: 100 = 100 % disease control, 0 = no disease control relative to controls
Source text: as §2
The test suspension was sprayed to the point of run-off on tomato seedlings. The following day the seedlings were inoculated with a spore suspension of Alternaria solani (the causal agent of tomato early blight) and incubated in a saturated atmosphere at 27° C. for 48 h, and then moved to a growth chamber at 20° C. for 5 days, after which time visual disease ratings were made.
as §1

Rhizoctonia oryzae = assay: Test G: turf brown patch, preventive spray on creeping bent grass seedlings, visual disease rating; details: 100 = 100 % disease control, 0 = no disease control relative to controls
Method: The test suspension was sprayed to the point of run-off on creeping bent grass seedlings. The following day the seedlings were inoculated with a spore suspension of Rhizoctonia oryzae (the causal agent of turf brown patch) and incubated in a saturated atmosphere at 27° C. for 48 h, and then moved to a growth chamber at 27° C. for 3 days, after which time visual disease ratings were made.
as §1

Botrytis cinerea = assay: Test E: tomato Botrytis, preventive spray on tomato seedlings, visual disease rating; details: 100 = 100 % disease control, 0 = no disease control relative to controls
[2] = tested on: Puccinia recondita f. sp. tritici; assay: Test B: wheat leaf rust, preventive spray on wheat seedlings, visual disease rating; details: 100 = 100 % disease control, 0 = no disease control relative to controls
Source text: General protocol for preparing test suspensions for Tests A-I: The test compounds were first dissolved in acetone in an amount equal to 3% of the final volume and then suspended at the desired concentration (in ppm) in acetone and purified water (50/50 mix) containing 250 ppm of the surfactant Trem® 014 (polyhydric alcohol esters). The resulting test suspensions were then used in Tests A-I. Spraying a 200 ppm test suspension to the point of run-off on the test plants was the equivalent of a rate of 500 g/ha.
The test suspension was sprayed to the point of run-off on wheat seedlings. The following day the seedlings were inoculated with a spore suspension of Puccinia recondita f. sp. tritici (the causal agent of wheat leaf rust) and incubated in a saturated atmosphere at 20° C. for 24 h, and then moved to a growth chamber at 20° C. for 7 days, after which time visual disease ratings were made.
as §3

SMILES: CN1OC(C)(c2cccnc2)CC1c1ccc(Oc2ccc(F)cc2)cc1 (racemic) [Compound 20]
- Test C disease control rating (Septoria nodorum; 200 ppm): 78%
- Test H disease control rating (Phytophthora infestans; 200 ppm): 0%
- Test D disease control rating (Septoria tritici; 200 ppm): 92%
- Test A disease control rating ([1]; 200 ppm): 91%
- Test I disease control rating (Plasmopara viticola; 200 ppm): 0%
- Test F disease control rating (Alternaria solani; 200 ppm): 0%
- Test G disease control rating (Rhizoctonia oryzae; 200 ppm): 0%
- Test E disease control rating (Botrytis cinerea; 200 ppm): 0%
- Test B disease control rating ([2]; 200 ppm): 92%

SMILES: CN1OC(c2cccnc2)(C(F)(F)F)CC1c1ccc(-c2ccccc2)cc1 (racemic) [Compound 23]
- Test C disease control rating (Septoria nodorum; 200 ppm): 97%
- Test H disease control rating (Phytophthora infestans; 200 ppm): 0%
- Test D disease control rating (Septoria tritici; 200 ppm): 98%
- Test A disease control rating ([1]; 200 ppm): 99%
- Test I disease control rating (Plasmopara viticola; 200 ppm): 0%
- Test F disease control rating (Alternaria solani; 200 ppm): 4%
- Test G disease control rating (Rhizoctonia oryzae; 200 ppm): 0%
- Test E disease control rating (Botrytis cinerea; 200 ppm): 0%
- Test B disease control rating ([2]; 200 ppm): 0%

SMILES: CN1OC(c2cccnc2)(C(F)(F)F)CC1c1ccc(-c2ccccc2)cc1 (racemic) [Compound 24]
- Test C disease control rating (Septoria nodorum; 200 ppm): 0%
- Test H disease control rating (Phytophthora infestans; 200 ppm): 0%
- Test D disease control rating (Septoria tritici; 200 ppm): 100%
- Test A disease control rating ([1]; 200 ppm): 99%
- Test I disease control rating (Plasmopara viticola; 200 ppm): 0%
- Test F disease control rating (Alternaria solani; 200 ppm): 0%
- Test G disease control rating (Rhizoctonia oryzae; 200 ppm): 0%
- Test E disease control rating (Botrytis cinerea; 200 ppm): 0%
- Test B disease control rating ([2]; 200 ppm): 45%

SMILES: Cc1ccc(-c2ccc(C3CC(c4cccnc4)(C(F)(F)F)ON3C)cc2)cc1 (racemic) [Compound 25]
- Test C disease control rating (Septoria nodorum; 40 ppm (marked *)): 0* %
- Test H disease control rating (Phytophthora infestans; 40 ppm (marked *)): 0* %
- Test D disease control rating (Septoria tritici; 40 ppm (marked *)): 86* %
- Test A disease control rating ([1]; 40 ppm (marked *)): 100* %
- Test I disease control rating (Plasmopara viticola; 40 ppm (marked *)): 0* %
- Test F disease control rating (Alternaria solani; 40 ppm (marked *)): 0* %
- Test G disease control rating (Rhizoctonia oryzae; 40 ppm (marked *)): 0* %
- Test E disease control rating (Botrytis cinerea; 40 ppm (marked *)): 71* %
- Test B disease control rating ([2]; 40 ppm (marked *)): 0* %

SMILES: Cc1ccc(-c2ccc(C3CC(c4cccnc4)(C(F)(F)F)ON3C)cc2)cc1 (racemic) [Compound 26]
- Test C disease control rating (Septoria nodorum; 40 ppm (marked *)): 0* %
- Test H disease control rating (Phytophthora infestans; 40 ppm (marked *)): 0* %
- Test D disease control rating (Septoria tritici; 40 ppm (marked *)): 75* %
- Test A disease control rating ([1]; 40 ppm (marked *)): 96* %
- Test I disease control rating (Plasmopara viticola; 40 ppm (marked *)): 0* %
- Test F disease control rating (Alternaria solani; 40 ppm (marked *)): 0* %
- Test G disease control rating (Rhizoctonia oryzae; 40 ppm (marked *)): 0* %
- Test E disease control rating (Botrytis cinerea; 40 ppm (marked *)): 0* %
- Test B disease control rating ([2]; 40 ppm (marked *)): 0* %

SMILES: CN1OC(c2cccnc2)(C(F)(F)F)CC1c1ccc(Br)cc1 (racemic) [Compound 29]
- Test C disease control rating (Septoria nodorum; 40 ppm (marked *)): 67* %
- Test H disease control rating (Phytophthora infestans; 40 ppm (marked *)): 0* %
- Test D disease control rating (Septoria tritici; 40 ppm (marked *)): 76* %
- Test A disease control rating ([1]; 40 ppm (marked *)): 98* %
- Test I disease control rating (Plasmopara viticola; 40 ppm (marked *)): 0* %
- Test F disease control rating (Alternaria solani; 40 ppm (marked *)): 83* %
- Test G disease control rating (Rhizoctonia oryzae; 40 ppm (marked *)): 0* %
- Test E disease control rating (Botrytis cinerea; 40 ppm (marked *)): 0* %
- Test B disease control rating ([2]; 40 ppm (marked *)): 0* %

SMILES: CN1OC(c2cccnc2)(C(F)(F)F)CC1c1ccc(Br)cc1 (racemic) [Compound 30]
- Test C disease control rating (Septoria nodorum; 200 ppm): 92%
- Test H disease control rating (Phytophthora infestans; 200 ppm): 0%
- Test D disease control rating (Septoria tritici; 200 ppm): 83%
- Test A disease control rating ([1]; 200 ppm): 100%
- Test I disease control rating (Plasmopara viticola; 200 ppm): 58%
- Test F disease control rating (Alternaria solani; 200 ppm): 0%
- Test G disease control rating (Rhizoctonia oryzae; 200 ppm): 0%
- Test E disease control rating (Botrytis cinerea; 200 ppm): 0%
- Test B disease control rating ([2]; 200 ppm): 89%

SMILES: Cc1cccc(-c2ccc(C3CC(c4cccnc4)(C(F)(F)F)ON3C)cc2)c1C (racemic) [Compound 31]
- Test C disease control rating (Septoria nodorum; 40 ppm (marked *)): 0* %
- Test H disease control rating (Phytophthora infestans; 40 ppm (marked *)): 0* %
- Test D disease control rating (Septoria tritici; 40 ppm (marked *)): 50* %
- Test A disease control rating ([1]; 40 ppm (marked *)): 98* %
- Test I disease control rating (Plasmopara viticola; 200 ppm): 0%
- Test F disease control rating (Alternaria solani; 40 ppm (marked *)): 0* %
- Test G disease control rating (Rhizoctonia oryzae; 40 ppm (marked *)): 0* %
- Test E disease control rating (Botrytis cinerea; 40 ppm (marked *)): 0* %
- Test B disease control rating ([2]; 200 ppm): 0%

SMILES: Cc1cccc(-c2ccc(C3CC(c4cccnc4)(C(F)(F)F)ON3C)cc2)c1C (racemic) [Compound 32]
- Test C disease control rating (Septoria nodorum; 200 ppm): 0%
- Test H disease control rating (Phytophthora infestans; 200 ppm): 0%
- Test D disease control rating (Septoria tritici; 200 ppm): 85%
- Test A disease control rating ([1]; 200 ppm): 97%
- Test I disease control rating (Plasmopara viticola; 200 ppm): 9%
- Test F disease control rating (Alternaria solani; 200 ppm): 0%
- Test G disease control rating (Rhizoctonia oryzae; 200 ppm): 0%
- Test E disease control rating (Botrytis cinerea; 200 ppm): 0%
- Test B disease control rating ([2]; 200 ppm): 0%

SMILES: CN1O[C@](C)(c2cnccn2)C[C@@H]1c1ccc(-c2ccccc2)cc1 (relative stereo) [Compound 21, rel-2-[(3R,5S)-3-[1,1′-biphenyl]-4-yl-2,5-dimethyl-5-isoxazolidinyl]pyrazine]
- Test C disease control rating (Septoria nodorum; 40 ppm (marked *)): 0* %
- Test H disease control rating (Phytophthora infestans; 40 ppm (marked *)): 0* %
- Test D disease control rating (Septoria tritici; 40 ppm (marked *)): 95* %
- Test A disease control rating ([1]; 40 ppm (marked *)): 97* %
- Test I disease control rating (Plasmopara viticola; 40 ppm (marked *)): 0* %
- Test F disease control rating (Alternaria solani; 40 ppm (marked *)): 62* %
- Test G disease control rating (Rhizoctonia oryzae; 40 ppm (marked *)): 0* %
- Test E disease control rating (Botrytis cinerea; 40 ppm (marked *)): 0* %
- Test B disease control rating ([2]; 40 ppm (marked *)): 0* %

SMILES: CN1O[C@@](C)(c2cnccn2)C[C@@H]1c1ccc(-c2ccccc2)cc1 (relative stereo) [Compound 22]
- Test C disease control rating (Septoria nodorum; 40 ppm (marked *)): 0* %
- Test H disease control rating (Phytophthora infestans; 40 ppm (marked *)): 0* %
- Test D disease control rating (Septoria tritici; 40 ppm (marked *)): 97* %
- Test A disease control rating ([1]; 40 ppm (marked *)): 86* %
- Test I disease control rating (Plasmopara viticola; 40 ppm (marked *)): 0* %
- Test F disease control rating (Alternaria solani; 40 ppm (marked *)): 0* %
- Test G disease control rating (Rhizoctonia oryzae; 40 ppm (marked *)): 0* %
- Test E disease control rating (Botrytis cinerea; 40 ppm (marked *)): 0* %
- Test B disease control rating ([2]; 40 ppm (marked *)): 0* %

SMILES: CN1O[C@@](c2cccnc2)(C(F)(F)F)C[C@@H]1c1ccc(I)cc1 (relative stereo) [Compound 27, rel-3-[(3R,5S)-3-(4-iodophenyl)-2-methyl-5-(trifluoromethyl)-5-isoxazolidinyl]pyridine]
- Test C disease control rating (Septoria nodorum; 40 ppm (marked *)): 100* %
- Test H disease control rating (Phytophthora infestans; 40 ppm (marked *)): 0* %
- melting point: 80 to 83 °C
- Test D disease control rating (Septoria tritici; 40 ppm (marked *)): 95* %
- Test A disease control rating ([1]; 40 ppm (marked *)): 100* %
- Test I disease control rating (Plasmopara viticola; 40 ppm (marked *)): 0* %
- Test F disease control rating (Alternaria solani; 40 ppm (marked *)): 100* %
- Test G disease control rating (Rhizoctonia oryzae; 40 ppm (marked *)): 0* %
- Test E disease control rating (Botrytis cinerea; 40 ppm (marked *)): 0* %
- Test B disease control rating ([2]; 40 ppm (marked *)): 0* %

SMILES: CN1O[C@](c2cccnc2)(C(F)(F)F)C[C@@H]1c1ccc(I)cc1 (relative stereo) [Compound 28, rel-3-[(3R,5R)-3-(4-iodophenyl)-2-methyl-5-(trifluoromethyl)-5-isoxazolidinyl]pyridine]
- Test C disease control rating (Septoria nodorum; 40 ppm (marked *)): 33* %
- Test H disease control rating (Phytophthora infestans; 40 ppm (marked *)): 0* %
- melting point: 108 to 110 °C
- Test D disease control rating (Septoria tritici; 40 ppm (marked *)): 88* %
- Test A disease control rating ([1]; 40 ppm (marked *)): 99* %
- Test I disease control rating (Plasmopara viticola; 40 ppm (marked *)): 0* %
- Test F disease control rating (Alternaria solani; 40 ppm (marked *)): 0* %
- Test G disease control rating (Rhizoctonia oryzae; 40 ppm (marked *)): 0* %
- Test E disease control rating (Botrytis cinerea; 40 ppm (marked *)): 0* %
- Test B disease control rating ([2]; 40 ppm (marked *)): 0* %

SMILES: CN1O[C@@](C)(c2cccnc2)C[C@@H]1c1ccc(-n2ccc(C(F)(F)F)n2)cc1 (relative stereo) [Compound 36, rel-3-[(3R,5R)-2,5-dimethyl-3-[4-[3-(trifluoromethyl)-1H-pyrazol-1-yl]phenyl]-5-isoxazolidinyl]pyridine]
- Test C disease control rating (Septoria nodorum; 40 ppm (marked *)): 0* %
- Test H disease control rating (Phytophthora infestans; 40 ppm (marked *)): 0* %
- Test D disease control rating (Septoria tritici; 40 ppm (marked *)): 73* %
- Test A disease control rating ([1]; 40 ppm (marked *)): 79* %
- Test I disease control rating (Plasmopara viticola; 40 ppm (marked *)): 0* %
- Test F disease control rating (Alternaria solani; 40 ppm (marked *)): 23* %
- Test G disease control rating (Rhizoctonia oryzae; 40 ppm (marked *)): 7* %
- Test E disease control rating (Botrytis cinerea; 40 ppm (marked *)): 22* %
- Test B disease control rating ([2]; 40 ppm (marked *)): 0* %

SMILES: CN1O[C@](C)(c2cccnc2)C[C@@H]1c1ccc(-n2cc(Br)cn2)cc1 (relative stereo) [Compound 37, rel-3-[(3R,5S)-3-[4-(4-bromo-1H-pyrazol-1-yl)phenyl]-2,5-dimethyl-5-isoxazolidinyl]pyridine]
- Test C disease control rating (Septoria nodorum; 40 ppm (marked *)): 99* %
- Test H disease control rating (Phytophthora infestans; 40 ppm (marked *)): 0* %
- Test D disease control rating (Septoria tritici; 40 ppm (marked *)): 99* %
- Test A disease control rating ([1]; 40 ppm (marked *)): 95* %
- Test I disease control rating (Plasmopara viticola; 40 ppm (marked *)): 0* %
- Test F disease control rating (Alternaria solani; 40 ppm (marked *)): 93* %
- Test G disease control rating (Rhizoctonia oryzae; 40 ppm (marked *)): 0* %
- Test E disease control rating (Botrytis cinerea; 200 ppm): 94%
- Test B disease control rating ([2]; 40 ppm (marked *)): 74* %

SMILES: CN1OC(C)(c2cccnc2)CC1c1ccc(-n2cc(Br)cn2)cc1 (centres unmarked) [Compound 38]
- Test C disease control rating (Septoria nodorum; 40 ppm (marked *)): 0* %
- Test H disease control rating (Phytophthora infestans; 40 ppm (marked *)): 0* %
- Test D disease control rating (Septoria tritici; 40 ppm (marked *)): 77* %
- Test A disease control rating ([1]; 40 ppm (marked *)): 0* %
- Test I disease control rating (Plasmopara viticola; 40 ppm (marked *)): 0* %
- Test F disease control rating (Alternaria solani; 40 ppm (marked *)): 42* %
- Test G disease control rating (Rhizoctonia oryzae; 40 ppm (marked *)): 0* %
- Test E disease control rating (Botrytis cinerea; 40 ppm (marked *)): 0* %
- Test B disease control rating ([2]; 40 ppm (marked *)): 0* %
